The source made the active and inactive calls. The calls are words filed in the database; no cut-off is given here.
Assays:
[1] = Induction of type-1 ROS generation in tetrahydrofuran at 0.5 uM followed by LED white light irradiation at 1.8 mWcm/2 for 300 sec by DCFH staining based analysis; assay type: functional
A549 [2] = assay: Inhibition of cell migration in human A549 cells assessed as appearance of blurred cells at 0.75 uM preincubated for 12 hrs followed by LED light irradiation 1.8 mW cm/2 for 2 hrs and measured after 48 hrs by wound healing assay; assay type: functional, cell-based; conditions: time 62.0 hrs
A549 [3] = assay: Inhibition of cell migration in human A549 cells assessed as appearance of blurred cells at 0.75 uM preincubated for 12 hrs followed by incubation under dark condition and measured after 48 hrs by wound healing assay; assay type: functional, cell-based; conditions: time 60.0 hrs
MCF7 = assay: Phototoxicity against human MCF7 cells assessed as reduction in cell proliferation at 0.156 to 10 uM irradiated with LED light at 1.8 mWcm/2 for 2 hrs and measured after 24 hrs under normoxia condition by MTT assay; assay type: functional, cell-based; conditions: dose 0.156-10 µM, time 26.0 hrs
A549 [4] = assay: Inhibition of cell migration in human A549 cells assessed as appearance of loose cells at 0.75 uM preincubated for 12 hrs followed by LED light irradiation 1.8 mW cm/2 for 2 hrs and measured after 48 hrs by wound healing assay; assay type: functional, cell-based; conditions: time 62.0 hrs
MDA-MB-231 = assay: Phototoxicity against human MDA-MB-231 cells assessed as reduction in cell proliferation at 0.156 to 10 uM irradiated with LED light at 1.8 mWcm/2 for 2 hrs and measured after 24 hrs under normoxia condition by MTT assay; assay type: functional, cell-based; conditions: dose 0.156-10 µM, time 26.0 hrs
A549 [5] = assay: Phototoxicity against human A549 cells assessed as reduction in cell proliferation at 0.156 to 10 uM irradiated with LED light at 1.8 mWcm/2 for 2 hrs and measured after 24 hrs under normoxia condition by MTT assay; assay type: functional, cell-based; conditions: dose 0.156-10 µM, time 26.0 hrs
A549 [6] = assay: Inhibition of cell migration in human A549 cells at 0.75 uM preincubated for 12 hrs followed by LED light irradiation 1.8 mW cm/2 for 2 hrs and measured after 48 hrs by wound healing assay; assay type: functional, cell-based; conditions: time 62.0 hrs
A549 [7] = assay: Induction of intracellular ROS generation in human A549 cells by measuring red fluorescence at 0.4 to 1.2 uM incubated for 24 hrs in presence of LED light irradiation at 1.8 mW cm/2 by DHE based fluorescence microscopy analysis; assay type: functional, cell-based; conditions: dose 0.4-1.2 µM
A549 [8] = assay: Induction of intracellular ROS generation in human A549 cells by measuring red fluorescence at 0.4 to 1.2 uM incubated for 24 hrs under dark condition by DHE based fluorescence microscopy analysis; assay type: functional, cell-based; conditions: dose 0.4-1.2 µM
HepG2 = assay: Phototoxicity against human HepG2 cells assessed as reduction in cell proliferation at 0.156 to 10 uM irradiated with LED light at 1.8 mWcm/2 for 2 hrs and measured after 24 hrs under normoxia condition by MTT assay; assay type: functional, cell-based; conditions: dose 0.156-10 µM, time 26.0 hrs
[9] = Developmental toxicity in wild type AB zebrafish assessed as effect on morphological abnormalities at 1.57 to 50 uM incubated for 72 hrs under dark condition; design: species or system Danio rerio; conditions: in vivo, dose 1.57-50 µM
[10] = Induction of type-1 ROS generation in methanol assessed as generation of O2 at 0.5 uM followed by Xe lamp irradiation for 5 mins by DCFH staining based analysis; assay type: functional
[11] = Developmental toxicity in wild type AB zebrafish assessed as effect on morphological abnormalities at 1.57 to 50 uM incubated for 72 hrs followed by LED light irradiation at 1.8 mW cm/2; design: species or system Danio rerio; conditions: in vivo, dose 1.57-50 µM
[12] = Photophysical property of the compound assessed as fluorescence quantum yield; assay type: physicochemical
[13] = Induction of type-1 ROS generation in methanol assessed as generation of OH at 0.5 uM followed by Xe lamp irradiation for 5 mins by DCFH staining based analysis; assay type: functional
[14] = Induction of type-1 ROS generation in tetrahydrofuran assessed as fold increase in DHR123 fluorescence intensity at 0.5 uM followed by LED white light irradiation at 1.8 mWcm/2 for 300 sec by DCFH staining based analysis; assay type: functional
A549 [15] = assay: Inhibition of cell migration in human A549 cells at 0.75 uM preincubated for 12 hrs followed by incubation under dark condition and measured after 48 hrs by wound healing assay; assay type: functional, cell-based; conditions: time 60.0 hrs
A549 [16] = assay: Inhibition of cell migration in human A549 cells assessed as appearance of loose cells at 0.75 uM preincubated for 12 hrs followed by incubation under dark condition and measured after 48 hrs by wound healing assay; assay type: functional, cell-based; conditions: time 60.0 hrs
[17] = Dark toxicity in human HBE cells assessed as cell viability incubated for 24 hrs in dark by MTT assay; assay type: cell-based

SMILES	Activity [1]	inhibition (A549 [2])	inhibition (A549 [3])	Activity (MCF7)	inhibition (A549 [4])	Activity (MDA-MB-231)	Activity (A549 [5])	inhibition (A549 [6])	Activity (A549 [7])	Activity (A549 [8])	Activity (HepG2)	Activity [9]	Activity [10]	Activity [11]	Fluorescence quantum yield [12]	Activity [13]	fold change (FC) [14]	inhibition (A549 [15])	inhibition (A549 [16])	Activity [17]
CCN(CC)c1ccc2cc(C(=O)/C=C/c3ccc4c(c3)CN3CN4Cc4cc(C=O)ccc43)c(=O)oc2c1	Active	Active	Active	Active	Active	Active	Active	Active	Active	inactive	Active	Non-toxic	Active	Non-toxic	0.18	Active	24.1	Active	Active	Toxic
CN(C)c1ccc2cc(C(=O)/C=C/c3ccc4c(c3)CN3CN4Cc4cc(Br)ccc43)c(=O)oc2c1	Active	–	–	–	–	–	–	–	–	–	–	–	Active	–	0.16	Active	25.5	–	–	Toxic

Reference: ChEMBL document CHEMBL6096699, “Tröger's Base as a Potential Bridge to Type-I Photosensitizers: Mechanism and Antitumor Applications” (J Med Chem, 2025)
